Experimental data from patent US5677328A, “Ethylamino carbazole melatonergic agents” (Bristol-Myers Squibb Company, priority 1996, dated 1997).

Tests used:
human ML1a = molecular target: T1, human ML1a (Homo sapiens, UniProt P48039); test: Measurement of Melatonergic Binding (human ML1a binding assay, 2-[125I]-iodomelatonin, COS-1 cell membranes); conditions: 2-[125I]-iodomelatonin 100 pM, 37° C. for 1 hour
T1 construct: expressed in transfected cells; host or cells: COS-1 cells (transient, DEAE-dextran), membrane homogenate
T1 sequence (P48039 whole entry): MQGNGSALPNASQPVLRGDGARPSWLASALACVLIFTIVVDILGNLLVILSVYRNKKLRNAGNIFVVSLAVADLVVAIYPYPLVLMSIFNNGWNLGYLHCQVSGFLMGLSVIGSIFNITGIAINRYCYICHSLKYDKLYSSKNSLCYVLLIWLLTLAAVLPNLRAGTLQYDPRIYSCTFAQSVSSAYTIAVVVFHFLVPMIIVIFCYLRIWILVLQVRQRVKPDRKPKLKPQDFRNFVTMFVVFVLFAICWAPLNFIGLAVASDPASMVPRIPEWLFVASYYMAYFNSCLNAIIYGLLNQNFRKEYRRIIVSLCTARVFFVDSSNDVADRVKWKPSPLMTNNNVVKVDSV
Experimental: Example 35 sets out the human ML1a binding assay used to test activity.
Measurement of Melatonergic Binding
(a) 50 mM Tris buffer containing 12.5mM MgCl2 and 2mM EDTA (pH 7.4 at 37° C.).
(b) Wash buffer: 20mM Tris base containing 2mM MgCl2 (pH 7.4 at room temperature).
(c) 6-Chloromelatonin (10^-5 M final concn.).
(d) 2-[^125 I]-iodomelatonin (100 pM final concn.). Source: NEN
2. Membrane preparation. The cDNA (human ML1A) was introduced into COS-1 cells by the DEAE-dextran method. Three days later, the media was removed, the plates washed with phosphate buffered saline, the cells removed using Hank's balanced salt solution and pelleted. The supernatant was discarded and the pellets frozen. For preparing membrane homogenates, pellets are thawed on ice, and resuspended in TME buffer, Tris base, MgCl2, EDTA (pH 7.4 at 37° C.), supplemented with aprotinin, leupeptin, and phenylmethlysulfonylfluoride. The cells were then homogenized using a dounce homogenizer, and centrifuged. The resulting pellet was resuspended with a dounce homogenizer in TME and frozen. On the day of assay, the small aliquot was thawed on ice and resuspended in TME buffer.
3. Incubation: 37° C. for 1 hour. Reaction is terminated by filtration.
The procedure was based on that disclosed in: Reppert, S. M., Weaver, D. R., and Ebisawa, R. (1994), Neuron, 13, 1177-1185 (1994).

[1] = test system: circadian rhythms in rats; conditions: exogenous melatonin administration, Cassone et al. 1986; cited from earlier work
[2] = cited from earlier work

IC50 (human ML1a) [nM] | Compound | synchronization of circadian rhythms [1] | oral bioavailability [2]
< 100 | COc1ccc2c3ccc(OC)cc3n(CCCNC(C)=O)c2c1 [Example 8, N-[3-(2,7-Dimethoxy-9H-carbazol-9-yl)propyl]acetamide] |  | 
< 100 | CCC(=O)NCCCn1c2cc(OC)ccc2c2ccc(OC)cc21 [Example 9, N-[3-(2,7-Dimethoxy-9H-carbazol-9-yl)propyl]propanamide] |  | 
< 100 | CCCC(=O)NCCCn1c2cc(OC)ccc2c2ccc(OC)cc21 [Example 10, N-[3-(2,7-Dimethoxy-9H-carbazol-9-yl)propyl]butanamide] |  | 
100 to 250 | COc1ccc2c3ccc(OC)cc3n(CCCNC(=O)C(C)C)c2c1 [Example 11, N-[3-(2,7-Dimethoxy-9H-carbazol-9-yl)propyl]-2-methylpropanamide] |  | 
< 100 | CCCC(=O)NCCn1c2ccccc2c2ccc(OC)cc21 [Example 15, N-[2-(2-Methoxy-9H-carbazol-9-yl)ethyl]butanamide] |  | 
100 to 250 | COc1ccc2c3ccccc3n(CCNC(=O)C3CC3)c2c1 [Example 17, N-[2-(2-Methoxy-9H-carbazol-9-yl)ethyl]cyclopropanecarboxamide] |  | 
100 to 250 | CCCC(=O)NCCn1c2cc(OC)ccc2c2ccc(OC)cc21 [Example 18, N-[2-(2,7-Dimethoxy-9H-carbazol-9-yl)ethyl]butanamide] |  | 
100 to 250 | COc1ccc2c3ccc(OC)cc3n(CCNC(=O)C(C)C)c2c1 [Example 19, N-[2-(2,7-Dimethoxy-9H-carbazol-9-yl)ethyl]-2-methylpropanamide] |  | 
< 100 | COc1ccc2c3ccc(OC)cc3n(CCNC(=O)C3CC3)c2c1 [Example 20, N-[2-(2,7-Dimethoxy-9H-carbazol-9-yl)ethyl]cyclopropanecarboxamide] |  | 
< 100 | COc1ccc2c3ccc(OC)cc3n(CCNC(=O)CSC)c2c1 [Example 21, N-[2-(2,7-Dimethoxy-9H-carbazol-9-yl)ethyl]methylthioacetamide] |  | 
≥ 250 | COc1ccc2c3ccc(OC)cc3n(CCNC(=O)CS(C)(=O)=O)c2c1 [Example 22, N-[2-(2,7-Dimethoxy-9H-carbazol-9-yl)ethyl]-2-(methanesulfonyl)acetamide] |  | 
< 100 | CNC(=O)NCCn1c2cc(OC)ccc2c2ccc(OC)cc21 [Example 26, N-[2-(2,7-Dimethoxy-9H -carbazol-9-yl)ethyl]-N'-methylurea] |  | 
< 100 | CCNC(=O)NCCn1c2cc(OC)ccc2c2ccc(OC)cc21 [Example 27, N-Ethyl-N'-[2-(2,7-dimethoxy-9H-carbazol-9-yl)ethyl]urea] |  | 
 | COc1ccc2[nH]cc(CCNC(C)=O)c2c1 [melatonin, N-acetyl-5-methoxytryptamine] | found to synchronize circadian rhythms in rats | often low and variable
